Results from a melting point compilation (Tetko et al.; mined from patent text by program, amines drawn as free bases though some values may be those of a salt).

First: COC(=O)c1cc(N)c(Oc2ccccc2)c(N2CCCC2)c1
Second: CC(=O)c1cc(O)c(-c2ccccc2)cc1O
The melting point of the first is lower: 154 to 156 °C for the first, 169 °C for the second.

First: COC(CCSCC=O)=NNS(=O)(=O)c1ccc(C)cc1
Second: Cc1ccc(S(=O)(=O)Oc2ccccc2NC(=O)c2cccc3[nH]ccc23)cc1
The melting point of the first is lower: 94 to 96 °C for the first, 135 °C for the second.

Compared with `[N-]=[N+]=NCC(=O)Nc1ccccc1`, `CC1(C)[C@@H](C(=O)Nc2cc(C(F)(F)F)n[nH]2)[C@@H]1c1ccccc1` (relative stereo) is lower in melting point: 83 °C for the first, 68 to 71 °C for the second.

`CC1Cc2cc3c(cc2C(c2ccc([N+](=O)[O-])cc2)=NN1)OCO3` (stereo unspecified) and `O=[N+]([O-])C=C1CN=C(c2ccccc2)c2sccc2N1` cannot be ordered by melting point: 162 to 164 °C for the first, 160 to 163 °C for the second.

First: O=C(Nc1ccc(F)cc1F)c1cccc(Oc2cccc(C(F)(F)F)c2)n1
Second: O=S(=O)(O)c1cccc(NCc2cccc(C(F)(F)F)c2)c1
The melting point of the first is lower: 110 to 112 °C for the first, over 275 °C for the second.

First: COC(=O)C1=C(S(=O)(=O)NC(=O)Nc2nc(C)cc(OC)n2)CCC1
Second: COC(=O)CCc1cc2cc(Cl)ccc2n1S(=O)(=O)c1cc(C)cc(C)c1
The melting point of the first is higher: 161 to 163 °C for the first, 146 to 150 °C for the second.

Compared with `Cc1cc(-n2cnn(Cc3ccc(F)cc3)c2=O)sc1C(=O)NCc1cnn(C)c1`, `CCC(c1ccccn1)N(Cc1ccc(C(=O)OC)cc1)S(=O)(=O)c1ccc(F)cc1` (stereo unspecified) is lower in melting point: 168 to 170 °C for the first, 82 to 84 °C for the second.

Compared with `CC(=O)c1sc(-c2ccncc2)c(-c2ccncc2)c1C`, `CC(C)CC(=O)Nc1cccc(-c2ccnc3c(-c4cccc(Cl)c4)cnn23)c1` is higher in melting point: 140 to 142 °C for the first, 169 to 171 °C for the second.

First: COC(=O)C1(Oc2cc(-n3c(=O)cc(C(F)(F)F)n(C)c3=O)c(F)cc2Cl)CC=CNC1=O (stereo unspecified)
Second: C#CCOc1cc(Cl)ccc1-n1c(=O)cc(C(F)(F)F)n(C)c1=O
The melting point of the first is lower: 82.4 °C for the first, 147 to 148 °C for the second.

Compared with `CON(C)S(=O)(=O)c1ccccc1[N+](=O)[O-]`, `CCOC(=O)C(=O)c1cn(CCNC(=O)OC(C)(C)C)c2ccccc12` is higher in melting point: 105 to 106 °C for the first, 114 to 115 °C for the second.

First: CN(C)C(=O)N=NC(=O)N(C)C
Second: CCOC(=O)[C@H]1O[C@@H]1C(=O)N[C@H](COCC(=O)N(C)C)CC(C)C
The melting point of the first is higher: 121 to 122 °C for the first, 64 to 65 °C for the second.

Compared with `CCCCC(=O)N(CCOCc1ccccc1)Cc1ccc(-c2ccccc2-c2nnn[nH]2)cc1`, `COc1nc(Br)cnc1NS(=O)(=O)c1cccc2c(NC(=O)OCc3ccccc3)cccc12` is higher in melting point: 109 to 110 °C for the first, 226 to 228 °C for the second.

First: COc1cc(OC)cc(C(=O)NC(NC(=NC#N)Nc2cccnc2OC)C(C)(Cl)Cl)c1 (stereo unspecified)
Second: COC(=O)c1cc2cc(C(=O)c3cccc(CC#N)c3)sc2s1
The melting point of the first is higher: 198 to 199 °C for the first, 184 °C for the second.

First: O=C(Nc1csc(Br)n1)C(Cl)(Cl)Cl
Second: CCOC(=O)C1=C(C(F)(F)F)Nc2n[nH]cc2C1c1ccsc1 (stereo unspecified)
The melting point of the first is lower: 77 to 80 °C for the first, 140 to 145 °C for the second.

Compared with `CCCc1nc2c(N)nc3cc(C(F)(F)F)ccc3c2s1`, `CCOC(=O)C(C)(C(=O)OCC)c1ccc(N)c(C(F)(F)F)c1` is lower in melting point: 215 to 216 °C for the first, 73 to 75 °C for the second.

First: O=C(Nc1cccc(C(=NO)c2ccccc2)c1)c1ccn2c1CSC2c1cccnc1 (single isomer, unassigned; (+))
Second: Cn1c(=Nc2ccccc2)sc2ncccc2c1=O
The melting point of the first is lower: 130 °C for the first, 189 to 190 °C for the second.

Compared with `CCc1nc2cc(S(C)(=O)=O)c(Cl)cc2n1-c1ccc(CCOC(=O)NS(=O)(=O)c2ccc(C)cc2)cc1`, `CCOC(=O)C1C(=O)Nc2ccccc2SC1c1ccc(C)cc1` (stereo unspecified) is higher in melting point: 105 to 110 °C for the first, 185 °C for the second.

First: CC(=O)Nc1ccc(-c2ccc(C(C)=O)o2)cc1
Second: COc1ccc(C2(C#Cc3cccc(NC(C)=O)c3)CCCC(=O)C2)cc1OC1CCCC1 (stereo unspecified)
The melting point of the first is higher: 214 to 215 °C for the first, 58 to 60 °C for the second.

First: O=Cc1ccc(O)cn1
Second: Oc1ccc2c(c1)cc1n2CCC1
The melting point of the first is higher: 134 to 135 °C for the first, 116 to 118 °C for the second.

First: CN(C)Cc1ccc(CSCCNC2=NS(=O)(=O)N=C2N)o1
Second: CC(C)(C)OC(=O)N[C@H]1COc2ccccc2N(CC(=O)OCc2ccccc2)C1=O
The melting point of the first is higher: 156 to 158 °C for the first, 122 to 124 °C for the second.

First: O=c1[nH]c(CO)nc2cc3c(cc12)CCC3
Second: O=c1[nH]ncc(NCCN2CCC(c3noc4cc(F)ccc34)CC2)c1Cl
The melting point of the first is lower: 205 to 210 °C for the first, 229 to 231 °C for the second.

First: CC(C)(C)C(=O)Nc1c(F)cc(F)cc1Oc1ccc(C2CC(=O)NC(=O)C2)cc1
Second: Cc1c(-c2ccccc2F)[nH]c(NCc2ccccc2)c1C#N
The melting point of the first is higher: 172 °C for the first, 151 to 152 °C for the second.

First: Cc1ccc(C=Cc2ccc(N(c3ccccc3)c3ccc4c5c(cccc35)CC4)cc2)cc1
Second: OC(c1ccccc1)(c1ccccc1)C(F)(F)C(F)(F)F
The melting point of the first is higher: 148 to 149 °C for the first, 82 to 83 °C for the second.

First: CNC(=O)CONC(=O)c1cc(Br)cc(Br)c1NC(=O)c1cc(Br)nn1-c1ncccc1Cl
Second: CN1Cc2c(C#CC3CC3)ncn2-c2cccc(Cl)c2C1=O
The melting point of the first is higher: 220 to 221 °C for the first, 177 to 178 °C for the second.

Compared with `COCOC1CCC2(C)C(=CCC3C2CCC2(C)C(CO)CCC32)C1` (stereo unspecified), `Cc1nc(-c2cc(Cl)ccc2Cl)n2c1nnc1ccc(N3CCOCC3)cc12` is higher in melting point: 102 to 105 °C for the first, 239 to 242 °C for the second.

Work on `O=C(O)C(=O)c1cccc(Cl)c1` yielded a melting point of 59 to 62 °C.
